In patent US20220339271A1, “MR1 RESTRICTED T CELL RECEPTORS FOR CANCER IMMUNOTHERAPY” (Universität Basel, priority 2018, published 2022):

What was measured:
Assay type in all cases: cell-based, human
MR1T cell clones = experiment: MR1T cell clone stimulation by A375-MR1 cells in the presence of 6-FP or Ac-6-FP; conditions: for MR1T cell stimulation in the presence of the ligand: A375-MR1 target cells; for inhibition of activation of MR1T cells: target A375 cells expressing mutant MR1 (A375-MR1 K34A)
Protocol: (§1) T cell activation assays. MR1-restricted T cells (5×10^4/well unless otherwise indicated) were co-cultured with indicated target cells (5×10^4/well) in 200 μl total volume in duplicates or triplicates. T cells were cultured with indicated APCs for 24 h. […] E. coli lysate was prepared from the DH5α strain (Invitrogen) grown in LB medium and collected during exponential growth. Bacterial cells were washed twice in PBS and then lysed by sonication. After centrifugation (15,000 g for 15 min), the supernatant was collected, dried, and stored at −70° C. APCs were pulsed for 4 h with E. coli lysate equivalent to 10^8 CFU/ml (unless otherwise indicated) before addition of T cells. In some experiments, APCs were pre-incubated with 6-FP or Ac-6-FP (Schircks Laboratories) for 4 h before co-culture with T cells. In control experiments with TCR γδ cells expressing TCR Vγ9 and Vδ2 chains, the APCs were first treated for 6 h with zoledronate (10 μg/ml) prior to T cell addition. Activation experiments with plate-bound recombinant human β2m-MR1-Fc were performed by coating β2m-MR1-Fc onto 96 well plates (4 μg/ml) and loading with cartridge-purified cell lysates for 4 h at 37° C. before washing twice and adding T cells. Supernatants were collected after 24 h and IFN-γ or GM-CSF were assessed by ELISA. Multiple cytokines and chemokines in cell culture supernatants were analyzed using the Milliplex MAP human cytokine/chemokine magnetic bead panel—Premixed 41 plex (HCYTMAG-60K-PX41; Merck Millipore) according to the manufacturer's instructions. Samples were acquired on a Flexmap 3D system (Merck Millipore) and Milliplex analyst software was used to determine mean fluorescence intensity and analyte concentration.

control MAIT cells = experiment: E. coli stimulation of control MAIT cells in the presence of 6-FP or Ac-6-FP; conditions: for E. coli stimulation of control MAIT cells in the presence of the ligand: A375-MR1 target cells; for inhibition of activation of MAIT cells: target A375 cells expressing mutant MR1 (A375-MR1 K34A)
Protocol: as §1

TCR Vγ9Vδ2 clone G2B9 = experiment: Control TCR γδ cell response to zoledronate-treated APCs in the presence of 6-FP or Ac-6-FP
Protocol: as §1, with “In control experiments with TCR γδ cells expressing TCR Vγ9 and Vδ2 chains, the APCs were first treated for 6 h with zoledronate (10 μg/ml) prior to T cell addition. Activation experiments with plate-bound recombinant human β2m-MR1-Fc were performed by coating β2m-MR1-Fc onto 96 well plates (4 μg/ml) and loading with cartridge-purified cell lysates for 4 h at 37° C. before washing twice and adding T cells.” left out

MAIT cell clone SMC3 = experiment: Stimulation of control MAIT cell clone by RL-6,7-diMe-loaded THP-1 cells
Protocol: T cell activation assays. MR1-restricted T cells (5×10^4/well unless otherwise indicated) were co-cultured with indicated target cells (5×10^4/well) in 200 μl total volume in duplicates or triplicates. T cells were cultured with indicated APCs for 24 h. In some experiments, anti-MR1 mAbs (clone 26.5) or mouse IgG2a isotype control mAbs (both at 30 μg/ml) were added and incubated for 30 min prior to the addition of T cells. E. coli lysate was prepared from the DH5α strain (Invitrogen) grown in LB medium and collected during exponential growth. Bacterial cells were washed twice in PBS and then lysed by sonication. After centrifugation (15,000 g for 15 min), the supernatant was collected, dried, and stored at −70° C. APCs were pulsed for 4 h with E. coli lysate equivalent to 10^8 CFU/ml (unless otherwise indicated) before addition of T cells. […] Supernatants were collected after 24 h and IFN-γ or GM-CSF were assessed by ELISA. Multiple cytokines and chemokines in cell culture supernatants were analyzed using the Milliplex MAP human cytokine/chemokine magnetic bead panel—Premixed 41 plex (HCYTMAG-60K-PX41; Merck Millipore) according to the manufacturer's instructions. Samples were acquired on a Flexmap 3D system (Merck Millipore) and Milliplex analyst software was used to determine mean fluorescence intensity and analyte concentration.

Compound	MR1T cell stimulation in the presence of the ligand (MR1T cell clones)	inhibition of activation of MR1T cells (MR1T cell clones)	E. coli stimulation of control MAIT cells in the presence of the ligand (control MAIT cells)	inhibition of activation of MAIT cells (control MAIT cells)	control TCR γδ cell responses to cognate antigen presented by the same APCs (compound toxicity) (TCR Vγ9Vδ2 clone G2B9)	stimulation of control MAIT cell clone (MAIT cell clone SMC3)
CC(=O)Nc1nc2ncc(C=O)nc2c(=O)[nH]1 [Ac-6-FP, acetyl-6-formyl pterin]	impaired	failed to inhibit	impaired	failed to inhibit	did not disrupt	–
Nc1nc2ncc(C=O)nc2c(=O)[nH]1 [Clone 6-FP, 6-formyl pterin]	impaired	failed to inhibit	impaired	failed to inhibit	did not disrupt	–
Cc1nc2c(=O)[nH]c(=O)nc-2n(C[C@H](O)[C@H](O)[C@H](O)CO)c1C [RL-6,7-diMe, 6,7-dimethyl-8-D-ribityllumazine]	–	–	–	–	–	stimulated in MR1-dependent manner
